Laboratory results reported in PubChem BioAssay AID2305 (GlaxoSmithKline (GSK), 2010).
Several values for one entry are separate records, joined by “and”; a condition that tells them apart may be missing. Equal entries are not always repeated.

Each molecule was assayed on P. falciparum 3D7 growth, pLDH absorbance (assay: blood-stage malaria parasite growth potency – strain 3D7, dose response (AID 2305)).

| Compound | IC50 |
| --- | --- |
| CC1CCN(C(=O)[C@H](Cc2c[nH]c3ccccc23)NS(=O)(=O)c2ccc(Cl)cc2)CC1 | 0.67 µM |
| CCCN(c1ccc(C(F)(F)F)cc1[N+](=O)[O-])S(=O)(=O)C(c1ccccc1)c1ccc(C(F)(F)F)cc1[N+](=O)[O-] (centres undefined) | 1.22 µM |
| Cc1cc(CNCCCCCNCc2ccc(Cl)cc2)ccc1O | 0.71 µM |
| COc1ccc(-c2nc(NCc3ccccc3)c3cc(OC)c(OC)cc3n2)cc1 | 0.4 µM |
| CCNC(=O)N1CCN(c2nc(-c3ccccc3)nc(COC)c2Cc2ccc(C)cc2)CC1 | 0.99 µM |
| CCCCc1cc(NCC)nc(Nc2ccc(OC)cc2)n1 | 1.18 µM |
| Cc1cc(F)ccc1N(c1nc(-c2cc(Cl)ccc2Cl)cs1)C1CCNC1 (centres undefined) | 1.01 µM |
| COc1ccc2[nH]cc(C3C[C@H]4CC[C@@H](C3)N4CCC3CCN(C(=O)/C=C/c4ccc(Cl)c(Cl)c4)CC3)c2c1 (some centres undefined) | 0.62 µM |
| CC(C)Cc1cn(-c2nc(-c3nc4ccccc4[nH]3)cs2)c2cc(Cl)ccc12 | 0.48 µM |
| CC(=O)Nc1ccc(OCCN(Cc2ccccc2C(F)(F)F)c2ccc(C#N)c(C(F)(F)F)c2)cc1 | 0.44 µM |
| c1ccc2c(NCCCCCCCCNc3ccnc4ccccc34)ccnc2c1 | 0.16 µM |
| CCOC(=O)c1ccc(NC(=O)N[C@@H](Cc2ccccc2)C(=O)NC2CCN(Cc3ccc(O)cc3)C2)cc1 (some centres undefined) | 0.63 µM |
| Cc1nc2nc(N)nc(N)c2c(C)c1Cc1ccc(Cl)cc1 | 0.22 µM |
| CCCCCCN1CCC(CNCc2cccc([N+](=O)[O-])c2)CC1 | 0.72 µM |
| Oc1cccc(C2CCCN(CCc3c[nH]c4ccccc34)C2)c1 (centres undefined) | 0.86 µM |
| CCc1cc(Br)c(CNCCCNc2cc(=O)c3ccccc3[nH]2)s1 | 0.95 µM |
| c1ccc(-n2ncc(CNCc3ccc(-c4ccc(-c5nc6ccccc6[nH]5)s4)cc3)n2)cc1 | 1.4 µM |
| NC(=O)c1cccc(C(=O)Nc2ccc(-c3cccc(-c4nc5ccc(F)cc5[nH]4)c3)cc2)c1 | 0.87 µM |
| CN1CCN(c2ccc(-c3cccc(NC(=O)c4cccc([N+](=O)[O-])c4)c3)nn2)CC1 | 0.53 µM |
| O=C(Nc1ccccc1)N(Cc1ccccc1-c1cccc(CNC2CCCC2)c1)C1CCN(Cc2ccccc2)CC1 | 0.17 µM |
| Cc1ccc(-c2ccc(NC(=O)N3CCc4cc(Br)c(N5CCN(C)CC5)cc43)cc2)cn1 | 1.35 µM |
| CSc1ccc(CN2CCC(NC(=O)c3ccc(-c4ccc(N(C)C)cc4)s3)CC2)cc1 | 1.5 µM |
| Oc1ccc2[nH]cc(C3CCN(CCCCCCCCCN4CCC(c5c[nH]c6ccc(O)cc56)CC4)CC3)c2c1 | 0.31 µM |

| Compound | IC50 |
| --- | --- |
| CNC(=O)Cc1ccc(C(=O)Nc2cccc(-c3cccc(-c4nc5c(C)cccc5[nH]4)c3)c2)cc1 | 0.53 µM |
| O=C(Nc1cccc(OC2CCN(Cc3ccccc3)CC2)c1)c1ccc([N+](=O)[O-])cc1 | 0.66 µM |
| CCCCCCCN(Cc1ccc(OC(C)(C)C(=O)OCC)cc1)C(=O)Nc1ccccc1OCC | 1.03 µM |
| CC(C)Cc1nc2nc(N)nc(N)c2cc1C(C)C | 0.23 µM |
| Cc1ccc(NC(=O)NC2CCN(CCCCCNC(=O)/C=C/c3ccc(Cl)c(Cl)c3)CC2)cc1C | 0.73 µM |
| Cc1c(CC(=O)N(C)C2CCN(CCCCCNC(=O)/C=C/c3ccc(Cl)c(Cl)c3)CC2)sc2ccc(Cl)cc12 | 1.16 µM |
| COc1ccc(NC(=O)[C@H](CC(C)C)Nc2cc(C)nc(NCCc3ccc(F)cc3)n2)cc1 | 0.92 µM |
| O=C(Nc1ccc(-c2ccccc2)cc1)Nc1cccc(Cn2ncc(N3CCCNCC3)c(Cl)c2=O)c1 | 0.22 µM |
| Clc1cnc2ccc3c(c2c1CCN1CCC(NCc2cc4c(cn2)OCCO4)CC1)OCCO3 | 0.72 µM |
| Cc1ccc(C(=O)NC2C(=O)NC2c2ccccc2)c(C)c1 (centres undefined) | 0.95 µM |
| c1ccc(COc2ccnc(NCCCOc3cccc(CN4CCCCC4)c3)c2)cc1 | 0.99 µM |
| COC(=O)[C@@H](NC(=O)[C@H](CC(C)C)Nc1ccc(C#N)c2ccccc12)c1ccc(O)cc1 | 0.79 µM |
| Cc1ccc2[nH]ncc2c1N(CC1CCCCC1)c1ccnc(Nc2ccc(OCC(O)CN3CC=CCC3)cc2)n1 (centres undefined) | 0.62 µM |
| Oc1ccc(CCNc2nc(NCc3ccccc3Oc3ccc(C(F)(F)F)cc3)nc(N3CCNCC3)n2)cc1 | 1.16 µM |
| Cc1ccc2nc(C)cc(NN=Cc3ccc([N+](=O)[O-])cc3)c2c1 | 0.79 µM |
| Cc1cccc2[nH]c(-c3ccc(-c4cccc(CNCc5ccccc5)c4)cc3)nc12 | 0.25 µM |
| O=C(Nc1ccc(F)cc1)NC1CCN(CCCCCNC(=O)[C@@H]2C[C@H]2c2ccc(Cl)c(Cl)c2)CC1 | 0.99 µM |
| CCN(CC)c1nc(-c2ccccc2)cc(-c2ccccc2)c1C#N | 0.45 µM |
| COc1ccccc1CCNc1nc(C)cc(N[C@@H](Cc2ccccc2)C(=O)Nc2ccccc2)n1 | 1.02 µM |
| COc1cccc(CNC(=O)[C@@H]2CN(C(=O)c3ccccc3)CCN2)c1 | 1.16 µM |
| CN(C)CCN(C)Cc1ccc(-c2cccc(NC(=O)c3cccc(C#N)c3)c2)cc1 | 1.18 µM |
| COc1ccc(CNC2CCN(c3ccc(NC(=O)c4cccc(Cl)c4)cc3)CC2)cc1OC | 1.02 µM |
| CCN(C1CCCCC1)S(=O)(=O)c1ccc(OC)c(N2CCN(C(=O)C(Cl)(Cl)Cl)CC2)c1 | 0.63 µM |

| Compound | IC50 |
| --- | --- |
| Nc1ncnc2nc(-c3ccc(F)cc3)cc(-c3ccc(NC(=O)c4ccccc4)cc3)c12 | 0.64 µM |
| COc1ccc2nccc([C@@H](O)CN3CCC(NC(=O)/C=C/c4ccc5ccccc5n4)CC3)c2c1 | 0.99 µM |
| CCCC1(NC[C@@H](O)[C@H](Cc2ccccc2)NC(=O)c2cc(NCC)cc(N3CCCCS3(=O)=O)c2)CCCC1 | 0.5 µM |
| COc1cc(C)nc2ccc(NC(=O)Nc3ccc([N+](=O)[O-])cc3C)cc12 | 0.6 µM |
| CCN1CCN(Cc2c(O)ccc3c(=O)c(Oc4cc(C)cc(C)c4)c(C(F)(F)F)oc23)CC1 | 0.77 µM |
| Cc1cccc2[nH]c(-c3ccc(-c4ccc(CN5CCCC(O)C5)cc4)cc3)nc12 (centres undefined) | 0.86 µM |
| CC(=NNC(=S)NCCc1ccccn1)c1ccccn1 | 0.32 µM |
| COc1cc2nc(N3CCC(CNCc4ccc(-c5ccc(C(F)(F)F)cc5)cc4)CC3)nc(N)c2cc1OC | 0.09 µM |
| O=C(NCCc1cccc(F)c1)c1cc(Br)cc(N2CCN(c3ccncc3)CC2)c1 | 0.76 µM |
| Cc1cccc2[nH]c(-c3cccc(-c4cccc(C(=O)NCCc5cn(C)cn5)c4)c3)nc12 | 0.59 µM |
| N#Cc1ccc(N[C@@H](CC2CCCCC2)C(=O)NCc2cc(Cl)cc(Cl)c2)c2ccccc12 | 1.1 µM |
| O=C(C=Cc1ccc(-c2ccccc2)cc1)NC1CCC(CN2CCC(c3c[nH]c4ccccc34)CC2)CC1 (centres undefined) | 0.81 µM and 0.74 µM |
| COc1cc(-n2c(CN3CCCC3)nc3cc(-c4ccc(Cl)cc4)sc3c2=O)ccc1OCCN1CCCC1 | 1.04 µM |
| Cc1ccc2[nH]c3c(NCCN(C)C)ncnc3c2c1 | 0.84 µM |
| O=C(Nc1ccc(Cl)cc1)Nc1ccc(OCC(O)CN2CCCCC2)cc1 (centres undefined) | 1.16 µM |
| COc1ccc(-c2cnc3ccc(NCc4ccc(S(N)(=O)=O)cc4)nn23)cn1 | 0.87 µM |
| O=C(Nc1c(F)cccc1F)c1cccc(-c2nn3ccccc3c2-c2ccnc(Nc3cccc(-c4cnco4)c3)n2)c1 | 0.36 µM |
| N=C(N)c1ccc(-c2cc3ccc(C(=N)N)cc3[nH]2)cc1 | 0.06 µM |
| CNC(=O)c1cnc(Nc2ccc(OCC(O)CN(C)C)cc2)nc1Nc1cccc(OC(C)C)c1 (centres undefined) | 0.14 µM |
| O=C1NC(=S)NC1=CC=Cc1ccc([N+](=O)[O-])o1 | 1.07 µM |
| COc1cccc(NC(=O)N2CCOC(CCN3CCC4(CCc5ccccc54)CC3)(c3ccc(Cl)c(Cl)c3)C2)c1 (centres undefined) | 1.01 µM |
| COc1cc(Cc2cnc(N)nc2N)cc(CC(C)O)c1O (centres undefined) | 0.84 µM |
| COc1ccc(CNCc2ccc(-c3ccc(-c4nc5c(C)cccc5[nH]4)s3)cc2)cc1 | 0.18 µM |
